# Laboratory results as given in patent US6664039B1, “Methods and compositions for modulating neurodegeneration” (California Institute of Technology, priority 1998, dated 2003).
# Entries after “also recorded” stand apart in the source; their conditions may differ.
# Legend:
# bubblegum mutant flies [1] = test: Brain (lamina) degeneration in bubblegum mutant flies by light and electron microscopy; assay type: in vivo, Drosophila; settings: for degeneration: male mutant flies raised in oil-containing medium from first instar larvae, 15 day-old adults
# Experimental: Tissue preparation for microscopy. Fly heads were prepared by fixation in 1% paraformaldehyde+1% glutaraldehyde, postfixation in 1% osmium tetroxide, dehydration in an ethanol series, and embedding in Epon 812. For light microscopy, […] were stained with 1% toludine blue 1% Borax. For electron microscopy, ultrathin sections (80 nm) were examined with a Philips 201 electron microscope at 60 kV.
# (§1) To determine whether similar dietary treatment can reduce the level of C26 and/or prevent the pathology seen in bubblegum, 2.5% of GTO oil was added to the normal corn meal-yeast-agar medium. […] However, knowing that oil treatment in ALD was not able to prevent the progression of the disease once patients had shown neurological symptoms, we decided to treat mutant flies with the oil at pre-adult stages. First instar larvae were raised in the oil-containing medium until eclosion and the adult flies were then transferred into fresh medium, still containing the oil, changed every 3 days.
# VLCFAs = test: Assay of very long chain fatty acids by gas chromatography in bubblegum flies; assay type: in vivo, Drosophila; settings: male mutant flies treated from larval stage, 15 days old, compared with parental strain
# Experimental: Assay of very long chain fatty acids by gas chromatography. To determine whether bubblegum has an accumulation of VLCFAs, fatty acid analysis by gas chromatography was performed on 15 day old flies, comparing homozygous mutant flies with those of the parent strain from which bubblegum was derived.
# Extracts of whole male or female flies were used for purification and methylation of fatty acids. Gas chromatography was performed with a HP-5MS column (30 m×0.25 mm, 0.25-μm film thickness) and mass spectrometry was used to analyze the fatty acid methyl esters. Identification and measurement of fatty acid concentrations were based on an oil reference standard (NHI-F) from Sigma Co. and the C15 added as an internal standard.
# as §1
# C26 = settings: ALD, feeding GTO oil, within 4 months; cited from earlier work
# bubblegum mutant flies [2] = test: Countercurrent phototaxis test; assay type: in vivo, Drosophila; settings: 5 day old bubblegum raised with the oil from the larval stage
# Excerpt: Phototactic analysis. In ALD, visual loss is on of the clinical symptoms, and anatomical analysis has shown abnormalities of the optic nerve and degeneration of ganglion cell layer. Flies transformed with P-elements expressing eye pigment, as is the case for bubblegum, are phototactic. A countercurrent phototaxis test was used to examine the visual behavior of bubblegum. […] Therefore, the oil treatment can prevent the biochemical, structural, and physiological defects caused by the mutation.
# Flies were placed in a countercurrent distribution apparatus and responses to light were analyzed. Each numbered tube represents the number of positive responses in a total of 5 trials. In control tests for the from-light response, neither group of flies moved away from light.
# bubblegum mutant flies [3] = test: Lifespan of bubblegum mutant flies; assay type: in vivo, Drosophila; settings: male mutant flies treated with oil from larval stage
# Experimental: Mutagenesis and screen. Drosophilia lines carrying P(lacZ, w+) were screened for mutations causing reduced lifespan at 29° C.
# as §1
smiles,measurement,setting,value
"CCCCCCCC/C=C\CCCCCCCC(=O)OCC(COC(=O)CCCCCCC/C=C\CCCCCCCC)OC(=O)CCCCCCC/C=C\CCCCCCCC [GTO, glyceryl trioleate]",onset of brain degeneration,"bubblegum mutant flies [1]; adult mutant flies transferred to medium with 2.5% GTO oil, fed 15 days following emergence",reduced only slightly
same,age-dependent degeneration phenotype,bubblegum mutant flies [1]; homozygous females fed the oil,similarly prevented
same,degeneration,bubblegum mutant flies [1],largely prevented; also recorded: prevented the onset of degeneration
same,degeneration,bubblegum mutant flies [1]; listed as GTO oil,largely been prevented
same,levels of VLCFAs,VLCFAs,becoming normal
same,levels of VLCFAs,VLCFAs; listed as GTO oil,reduced to normal
same,reduction of the level of C26 in plasm,C26,about 50%
same,phototactic response (response to the light),bubblegum mutant flies [2],greatly enhanced response to the light
same,phototactic response (response to the light),bubblegum mutant flies [2]; listed as oil,showed a phototactic response
same,lifespan,bubblegum mutant flies [3],recovered
